Source: patent US20100137134A1, “Pesticidal Mixtures” (priority 2005, published 2010)

How the values were obtained:
[1] = test system: vetch aphid (Megoura viciae); assay: Control of vetch aphid on broad bean leaf disks in 24-well microtiter plates (Test B.1); assay type: in vivo
Procedure: For evaluating control of vetch aphid (Megoura viciae) through contact or systemic means the test unit consisted of 24-well-microtiter plates containing broad bean leaf disks.
The compounds or mixtures were formulated using a solution containing 75% water and 25% DMSO (dimethylsulfoxid). Different concentrations of formulated compounds or mixtures were sprayed onto the leaf disks at 2.5 μl, using a custom built micro atomizer, at two replications.
(§1) For experimental mixtures in these tests identical volumes of both mixing partners at the desired concentrations respectively, were mixed together.
After application, the leaf disks were air-dried and 5-8 adult aphids placed on the leaf disks inside the microtiter plate wells. The aphids were then allowed to suck on the treated leaf disks and incubated at 23±1° C., 50±5% RH (room humidity) for 5 days. Aphid mortality and fecundity was then visually assessed.

[2] = test system: boll weevil (Anthonomus grandis); assay: Control of boll weevil, insect diet with eggs in 24-well microtiter plates (Test B.2); assay type: in vivo
Procedure: For evaluating control of boll weevil (Anthonomus grandis) the test unit consisted of 24-well-microtiter plates containing an insect diet and 20-30 A. grandis eggs.
The compounds or mixtures were formulated using a solution containing 75% water and 25% DMSO. Different concentrations of formulated compounds or mixtures were sprayed onto the […] at 20 μl, using a custom built micro atomizer, at two replications.
as §1
After application, microtiter plates were incubated at 23±1° C., 50±5% RH (room humidity) for 5 days. Egg and larval mortality was then visually assessed.

## Cc1cc(C#N)cc(C(N)=O)c1NC(=O)c1cc(Br)nn1-c1ncccc1Cl [IA-26/T4]
[1]; test compound alone, 0.1 ppm (0 + 0.1), 5 days
  Average (Control %): 0%
[2]; test compound alone, 0.3 ppm (0 + 0.3), 5 days
  Average (Control %): 0%

## Cc1cc(C#N)cc(C(=O)NC2CC2)c1NC(=O)c1cc(Br)nn1-c1ncccc1Cl [IA-326/T4]
[2]; test compound alone, 0.01 ppm (0 + 0.01), 5 days
  Average (Control %): 0%
[2]; test compound alone, 0.03 ppm (0 + 0.03), 5 days
  Average (Control %): 0%

## O=[N+]([O-])NC1=NCCN1Cc1ccc(Cl)nc1 [Imidacloprid, reference compound]
[1]; Imidacloprid alone, 1 ppm (1 + 0), aphid mortality and fecundity after 5 days
  Average (Control %): 25%
[2]; Imidacloprid alone, 10 ppm (10 + 0), egg and larval mortality after 5 days
  Average (Control %): 0%
